Read-outs that look alike come from different tables or passages of the source.
Columns and labels:
[1] = Cytotoxicity Determination (CCK-8, without addition of virus); format: cell-based; conditions: human, 50% cytotoxicity concentration (CC50)
Outline: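 HEp-2 cells were seeded at 1,500 cells/well one day before compound addition. Compounds were tested without virus in duplicate over 7 points from 100 μM in 1/2 steps, with 1% final DMSO, 5 days at 37 °C, 5% CO2. Viability was read by CCK-8 after 3-4 hours.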

RSV replicon = test: microbe, parasite or virus in culture; format: cell-based; conditions: human respiratory syncytial virus, read-out: EC50, the concentration of the drug required for reducing RSV replicon RNA by 50%
[2] = tested on: Respiratory Syncytial Virus (RSV) long strain; test: microbe, parasite or virus in culture; format: cell-based; conditions: human respiratory syncytial virus, Tables A and B list compounds by EC50 band
Outline: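 HEp-2 cells infected with 100 TCID50 virus per well, compounds in duplicate, 9-point 1/3 dilutions from 100 μM or 1 μM, 1% DMSO. After 5 days at 37 °C, cell viability (CPE protection) read by CCK-8 absorbance at 450 nm, 630 nm background.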

recombinant RSV complex = recombinant RSV complex (Human respiratory syncytial virus A, UniProt P28887); test: RSV Polymerase Inhibition Assay; format: biochemical
Sequence of recombinant RSV complex (P28887 whole entry): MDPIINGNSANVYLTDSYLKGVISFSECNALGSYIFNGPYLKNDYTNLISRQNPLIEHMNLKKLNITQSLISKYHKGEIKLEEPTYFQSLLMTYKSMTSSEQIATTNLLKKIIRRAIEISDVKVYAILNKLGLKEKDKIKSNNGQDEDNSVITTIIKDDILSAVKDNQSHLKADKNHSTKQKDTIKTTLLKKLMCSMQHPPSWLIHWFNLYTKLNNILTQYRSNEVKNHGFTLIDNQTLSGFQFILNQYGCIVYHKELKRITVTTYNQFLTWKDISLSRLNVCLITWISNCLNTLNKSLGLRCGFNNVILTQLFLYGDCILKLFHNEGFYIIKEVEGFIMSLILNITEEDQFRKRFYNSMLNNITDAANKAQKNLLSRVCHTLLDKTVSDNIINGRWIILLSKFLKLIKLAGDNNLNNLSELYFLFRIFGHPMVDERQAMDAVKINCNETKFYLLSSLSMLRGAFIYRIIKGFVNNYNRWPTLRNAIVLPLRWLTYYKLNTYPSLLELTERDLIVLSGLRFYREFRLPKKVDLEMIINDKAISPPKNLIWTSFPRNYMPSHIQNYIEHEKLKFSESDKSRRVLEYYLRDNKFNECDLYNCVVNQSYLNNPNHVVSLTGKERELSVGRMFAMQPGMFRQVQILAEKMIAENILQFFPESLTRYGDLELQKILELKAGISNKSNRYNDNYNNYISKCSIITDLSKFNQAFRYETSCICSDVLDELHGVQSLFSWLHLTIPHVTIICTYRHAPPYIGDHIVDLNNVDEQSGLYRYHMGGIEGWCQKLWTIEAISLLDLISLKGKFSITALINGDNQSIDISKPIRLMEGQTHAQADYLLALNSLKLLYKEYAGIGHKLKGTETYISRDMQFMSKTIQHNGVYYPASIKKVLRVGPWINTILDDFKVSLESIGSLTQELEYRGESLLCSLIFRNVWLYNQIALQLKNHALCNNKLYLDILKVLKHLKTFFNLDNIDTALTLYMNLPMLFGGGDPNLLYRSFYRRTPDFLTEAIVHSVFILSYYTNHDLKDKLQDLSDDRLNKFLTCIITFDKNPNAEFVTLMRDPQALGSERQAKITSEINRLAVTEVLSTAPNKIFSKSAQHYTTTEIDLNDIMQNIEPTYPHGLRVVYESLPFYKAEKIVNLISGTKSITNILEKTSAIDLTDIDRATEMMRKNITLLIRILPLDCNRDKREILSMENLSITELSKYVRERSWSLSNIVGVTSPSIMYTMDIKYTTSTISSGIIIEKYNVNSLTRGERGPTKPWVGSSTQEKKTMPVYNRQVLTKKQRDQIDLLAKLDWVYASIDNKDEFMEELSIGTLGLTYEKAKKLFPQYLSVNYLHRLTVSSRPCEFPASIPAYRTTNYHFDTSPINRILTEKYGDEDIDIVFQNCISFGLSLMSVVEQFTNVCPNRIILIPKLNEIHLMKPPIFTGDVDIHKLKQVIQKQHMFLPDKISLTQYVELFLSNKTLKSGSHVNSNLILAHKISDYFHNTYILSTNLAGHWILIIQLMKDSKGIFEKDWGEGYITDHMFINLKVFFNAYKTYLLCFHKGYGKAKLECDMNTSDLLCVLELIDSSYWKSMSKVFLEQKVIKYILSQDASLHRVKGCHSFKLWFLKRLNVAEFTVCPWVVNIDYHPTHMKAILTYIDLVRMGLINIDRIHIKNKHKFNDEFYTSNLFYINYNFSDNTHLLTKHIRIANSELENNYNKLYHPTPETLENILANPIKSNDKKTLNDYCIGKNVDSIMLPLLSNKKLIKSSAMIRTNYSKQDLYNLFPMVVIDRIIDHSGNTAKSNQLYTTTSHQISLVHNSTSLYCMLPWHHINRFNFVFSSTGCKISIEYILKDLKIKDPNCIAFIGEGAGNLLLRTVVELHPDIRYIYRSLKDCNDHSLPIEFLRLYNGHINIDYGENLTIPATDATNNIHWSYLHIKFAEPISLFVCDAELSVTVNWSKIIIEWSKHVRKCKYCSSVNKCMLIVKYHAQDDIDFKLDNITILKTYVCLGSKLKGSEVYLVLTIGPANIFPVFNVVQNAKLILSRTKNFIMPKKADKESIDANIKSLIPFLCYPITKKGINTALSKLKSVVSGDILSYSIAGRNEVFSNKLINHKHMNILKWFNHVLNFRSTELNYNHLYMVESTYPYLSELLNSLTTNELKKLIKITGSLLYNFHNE
Sequence of recombinant RSV complex (P03421 whole entry, further chain): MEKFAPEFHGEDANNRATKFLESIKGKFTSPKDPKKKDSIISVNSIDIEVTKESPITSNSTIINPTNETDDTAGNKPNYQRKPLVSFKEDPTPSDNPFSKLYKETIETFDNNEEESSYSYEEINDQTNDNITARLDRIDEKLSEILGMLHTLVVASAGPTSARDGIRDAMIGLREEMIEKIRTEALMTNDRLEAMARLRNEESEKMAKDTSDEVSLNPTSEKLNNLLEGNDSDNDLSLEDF
Outline: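 10 nM recombinant RSV polymerase complex in Tris-HCl pH 7.5, 6 mM MgCl2 with RNA oligonucleotide template and radionucleotides, incubated 2 h at 30 °C with increasing inhibitor concentrations. Reaction stopped with EDTA; radiolabeled RNA product counted by scintillation.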

[3] = HEp-2, 120 h, read-out: 50% effective concentration (EC50), HEp-2 cells infected with RSV long strain, 5 days, CCK-8 readout
[4] = 120 h, read-out: 50% effective concentration (EC50), HEp-2 cells infected with RSV long strain, 5 days, CCK-8 readout

Work on COc1cc(C(=O)NCC(O)(CC2CNC2)c2ccc(OC)c(-c3ccc(F)c(Cl)c3)n2)ccc1OC1CC1 (centres unmarked) [Compound 461] yielded a CC50 at 5 days [1] of 10000 to 100000 nM, an EC50 (RSV replicon) of 1000 to 50000 nM and an EC50 [2, 3] of less than 1000 nM. For the same molecule, the IC50 (recombinant RSV complex) was less than 1000 nM.
COc1cc(C(=O)NCC(O)(c2ccc(OC)c(-c3ccc(F)c(Cl)c3)n2)C(F)(F)F)ccc1OC1CC1(F)F (centres unmarked) [Compound 358] gave a CC50 at 5 days [1] greater than 100000 nM, an EC50 (RSV replicon) of less than 1000 nM and an EC50 [2, 3] of less than 1000 nM. The IC50 (recombinant RSV complex) was less than 1000 nM.
With COc1cc(C(=O)NCC(C)(O)c2cc(C(C)(C)C)cc(-c3ccc(F)c(Cl)c3)n2)ccc1OCCO (centres unmarked) [Compound 467] the CC50 at 5 days [1] was 10000 to 100000 nM, the EC50 (RSV replicon) was less than 1000 nM and the EC50 [2, 3] was less than 1000 nM. It also gave an IC50 (recombinant RSV complex) of less than 1000 nM.
For COc1cc(C(=O)NCC(O)(c2cc(C(C)(C)N)cc(-c3ccc(F)c(Cl)c3)n2)C(F)(F)F)ccc1OCCOC(=O)C(C)C (centres unmarked) [Compound 490], the CC50 at 5 days [1] was 10000 to 100000 nM, the EC50 (RSV replicon) was less than 1000 nM and the EC50 [2, 3] was less than 1000 nM. It also gave an IC50 (recombinant RSV complex) of less than 10000 nM.
For COc1cc(C(=O)NCC(O)(c2cc(C(C)(C)NCC(=O)O)cc(-c3ccc(F)c(Cl)c3)n2)C(F)(F)F)ccc1OC1CC1 (centres unmarked) [Compound 515], the CC50 at 5 days [1] was 10000 to 100000 nM, the EC50 (RSV replicon) was less than 1000 nM and the EC50 [2, 3] was less than 1000 nM. It also gave an IC50 (recombinant RSV complex) of less than 1000 nM.
With COc1cc(C(=O)NCC(O)(c2cc3c(c(-c4ccc(F)c(Cl)c4)n2)OCC3(C)N)C(F)(F)F)ccc1OCCO (centres unmarked) [Compound 638] the CC50 at 5 days [1] was 10000 to 100000 nM, the EC50 (RSV replicon) was less than 1000 nM and the EC50 [2, 3] was less than 1000 nM. For the same molecule, the IC50 (recombinant RSV complex) was less than 1000 nM.
In the case of COc1cc(C(=O)NCC(O)(c2cc(C(C)(C)N)cc(-c3ccc(F)c(Cl)c3)n2)C(F)(F)F)ccc1O[C@H]1CCNC1=O (some centres unmarked) [Compound 283], the CC50 at 5 days [1] is reported as 10000 to 100000 nM, the EC50 (RSV replicon) is reported as less than 1000 nM and the EC50 [2, 3] is reported as less than 1000 nM. It also gave an IC50 (recombinant RSV complex) of less than 1000 nM.
Work on CC(C)(N)c1cc(-c2ccc(F)cc2)nc(C(O)(CNC(=O)c2ccc(OC3CC3)c(CO)c2)C(F)(F)F)c1 (centres unmarked) [Compound 644] yielded a CC50 at 5 days [1] of 10000 to 100000 nM, an EC50 (RSV replicon) of less than 1000 nM and an EC50 [2, 3] of less than 1000 nM. The IC50 (recombinant RSV complex) was less than 1000 nM.
Molecule COc1cc(C(=O)NCC(O)(c2cc3c(c(-c4ccc(F)cc4)n2)OCC3(C)N)C(F)(F)F)cc2ccc(=O)[nH]c12 (centres unmarked) [Compound 642] has a CC50 at 5 days [1] of 10000 to 100000 nM, an EC50 (RSV replicon) of less than 1000 nM and an EC50 [2, 3] of less than 1000 nM. The IC50 (recombinant RSV complex) was less than 1000 nM.
With COc1cc(C(=O)NCC(=O)c2cc3c(c(-c4ccc(F)c(Cl)c4)n2)OCC=C3)ccc1OCCF [Compound 302] the CC50 at 5 days [1] was greater than 100000 nM, the EC50 (RSV replicon) was less than 1000 nM and the EC50 [2, 3] was 1000 to 50000 nM. The IC50 (recombinant RSV complex) was less than 1000 nM.
COc1cc(C(=O)NCC(=O)c2cc3c(c(-c4ccc(F)c(Cl)c4)n2)OCC3(C)C)cc2cccnc12 [Compound 220] showed a CC50 at 5 days [1] greater than 100000 nM, an EC50 (RSV replicon) of 1000 to 50000 nM and an EC50 [2, 4] of less than 1000 nM. For the same molecule, the IC50 (recombinant RSV complex) was less than 1000 nM.
Molecule COc1cc(C(=O)NC[C@@](O)(c2cc3c(c(-c4ccc(F)cc4)n2)OC[C@@]3(C)N)C(F)(F)F)ccc1OC[C@@H](C)O [Compound 630] has a CC50 at 5 days [1] of 10000 to 100000 nM, an EC50 (RSV replicon) of less than 1000 nM and an EC50 [2, 4] of less than 1000 nM. It also gave an IC50 (recombinant RSV complex) of less than 1000 nM.
For COc1cc(C(=O)NCC(O)(c2cc(C(C)(C)NC(N)=O)cc(-c3ccc(F)c(Cl)c3)n2)C(F)(F)F)ccc1OC1CC1 (centres unmarked) [Compound 516], the CC50 at 5 days [1] was 10000 to 100000 nM, the EC50 (RSV replicon) was less than 1000 nM and the EC50 [2, 3] was less than 1000 nM. It also gave an IC50 (recombinant RSV complex) of less than 1000 nM.
In the case of COc1cc(C(=O)NCC(O)(c2cc3c(c(-c4ccc(F)cc4)n2)OCC3(C)N)C(F)(F)F)ccc1OC[C@@H](C)O (some centres unmarked) [Compound 556], the CC50 at 5 days [1] is reported as 10000 to 100000 nM, the EC50 (RSV replicon) is reported as less than 1000 nM and the EC50 [2, 3] is reported as less than 1000 nM. The IC50 (recombinant RSV complex) was less than 1000 nM.
Molecule COc1cc(C(=O)NCC(O)(c2cc(C(N)CO)cc(-c3ccc(F)cc3)n2)C(F)(F)F)ccc1OC1CC1 (centres unmarked) [Compound 529] has a CC50 at 5 days [1] of 10000 to 100000 nM, an EC50 (RSV replicon) of less than 1000 nM and an EC50 [2, 3] of less than 1000 nM. It also gave an IC50 (recombinant RSV complex) of less than 1000 nM.
COc1cc(C(=O)NCC(C)(O)c2ccc(OC)c(-c3c[nH]c4c(F)cccc34)n2)ccc1OCCO (racemic) [Compound 117] showed a CC50 at 5 days [1] of 10000 to 100000 nM, an EC50 (RSV replicon) of less than 1000 nM and an EC50 [2, 3] of less than 1000 nM. For the same molecule, the IC50 (recombinant RSV complex) was less than 1000 nM.
COc1ccc(C(O)(CO)CNC(=O)c2ccc(OC3CCNC3=O)c(Cl)c2)nc1-c1ccc(F)c(Cl)c1 (centres unmarked) [Compound 452] gave a CC50 at 5 days [1] of 10000 to 100000 nM, an EC50 (RSV replicon) of less than 1000 nM and an EC50 [2, 3] of less than 1000 nM. It also gave an IC50 (recombinant RSV complex) of less than 1000 nM.
